From ChEMBL document CHEMBL5214928, “DEAD-Box Helicase DDX3X as a Host Target against Emerging Viruses: New Insights for Medicinal Chemical Approaches” (J Med Chem, 2022)

Legend:
[1] = Half life in mouse administered intraperitoneally; format: ADME; conditions: in vivo, route ip
[2] = Selectivity index, ratio of CC50 for human H9 cells to EC50 for HIV-1 NL4-3 infected in human H9 cells; format: toxicity, cell-based; conditions: read-out: Ratio CC50/EC50
H9 = assay: Cytotoxicity against human H9 cells assessed as reduction in cell viability incubated for 72 hrs by luciferase based assay; format: functional
[3] = tested on: Human immunodeficiency virus 1; assay: Antiviral activity against HIV-1 NL4-3 infected in human H9 cells assessed as reduction in viral replication at MOI of 0.03 measured after 48 hrs by Bright-Glo Luciferase Assay; format: functional, organism-based; conditions: Human immunodeficiency virus 1, NL4-3, H9, 48 h
[4] = Selectivity index, ratio of CC50 for hepatoma cells (unknown origin) to EC50 for HCV-1 infected in hepatoma cells (unknown origin); format: toxicity, cell-based; conditions: read-out: Ratio CC50/EC50
Hepatoma cell line = assay: Cytotoxicity against hepatoma cells (unknown origin) assessed as reduction in cell viability; format: functional
West Nile virus [5] = assay: Antiviral activity against WNV infected in human Huh-7 cells assessed as reduction in viral replication; format: functional, organism-based
Hepatitis C virus [6] = assay: Antiviral activity against HCV-1 infected in hepatoma cells (unknown origin) assessed as reduction in viral replication; format: functional, organism-based, Hepacivirus hominis; conditions: genotype 1, Hepatoma cell line
Huh-7 = assay: Cytotoxicity against human Huh-7 cells assessed as reduction in cell viability; format: functional
[7] = Selectivity index, ratio of CC50 for human Huh-7 cells to EC50 for WNV infected in human Huh-7 cells; format: toxicity, cell-based; conditions: read-out: Ratio CC50/EC50
[8] = target: T1, ATP-dependent RNA helicase DDX3X (Homo sapiens, UniProt O00571); assay: Binding affinity to DDX3X (unknown origin) assessed as inhibition constant
[9] = tested on: Human immunodeficiency virus 1; assay: Antiviral activity against recombinant HIV-1 infected in CD4+ human HeLa cells assessed as reduction in viral replication; format: functional, organism-based; conditions: Human immunodeficiency virus 1, HeLa
HeLa = assay: Cytotoxicity against human HeLa cells assessed as reduction in cell viability incubated for 72 hrs with replacement of medium containing compound for every 24 hrs by MTS based Cell Titer 96 viability assay; format: functional
[10] = Selectivity index, ratio of CC50 for human HeLa cells to EC50 for recombinant HIV-1 infected in CD4+ human HeLa cells; format: toxicity, cell-based; conditions: read-out: Ratio CC50/EC50
[11] = target: T1, ATP-dependent RNA helicase DDX3X; assay: Inhibition of DDX3X (unknown origin) helicase activity
[12] = Cytotoxicity against hamster BHK-21 cells assessed as reduction in cell viability at MOI of 0.01 incubated for 48 hrs by plaque formation assay; format: toxicity, cell-based, Mesocricetus auratus
[13] = Selectivity index, ratio of CC50 for PBMC (unknown origin) to EC50 for HIV-1 NL4-3 infected in PBMC (unknown origin); format: toxicity; conditions: read-out: Ratio CC50/EC50
[14] = tested on: Human immunodeficiency virus 1; assay: Antiviral activity against HIV-1 NL4-3 infected in PBMC (unknown origin) assessed as reduction in viral replication; format: functional, organism-based; conditions: Human immunodeficiency virus 1, NL4-3, PBMC
Hepatitis C virus [15] = assay: Antiviral activity against HCV-1 infected in human LucUbiNeo-ET cells assessed as reduction in viral replication incubated for 2 days by luminometry; format: functional, organism-based, Hepacivirus hominis; conditions: genotype 1, LucUbiNeo-ET, 48 h
[16] = Selectivity index, ratio of CC50 for hamster BHK-21 cells to EC50 for JEV SA14-14-2 infected in hamster BHK-21 cells; format: toxicity, cell-based; conditions: read-out: Ratio CC50/EC50
[17] = Half life in rat administered intravenously; format: ADME; conditions: in vivo, route iv
[18] = Cytotoxicity against human LucUbiNeo-ET cells assessed as reduction in cell viability by MTT assay; format: functional
[19] = tested on: Japanese encephalitis virus; assay: Antiviral activity against JEV SA14-14-2 infected in hamster BHK-21 cells assessed as reduction in viral replication by plaque formation assay; format: functional, organism-based; conditions: SA14-14-2, BHK-21
[20] = Selectivity index, ratio of CC50 for human LucUbiNeo-ET cells to EC50 for HCV-1 infected in human LucUbiNeo-ET cells; format: toxicity, cell-based; conditions: read-out: Ratio CC50/EC50
[21] = Selectivity index, ratio of CC50 for human Huh-7 cells to EC50 for DENV-2 New Guinea C infected in human Huh-7 cells; format: toxicity, cell-based; conditions: read-out: Ratio CC50/EC50
dengue virus type 2 [22] = assay: Antiviral activity against DENV-2 New Guinea C infected in human Huh-7 cells assessed as reduction in viral replication; format: functional, organism-based
[23] = Cytotoxicity against PBMC (unknown origin) assessed as reduction in cell viability; format: toxicity, cell-based
[24] = target: T1, ATP-dependent RNA helicase DDX3X; assay: Inhibition of recombinant DDX3X (unknown origin) helicase activity using 6-FAM-labeled dsRNA as substrate incubated for 30 mins by fluorescence based assay
[25] = Cytotoxicity against African green monkey Vero E6 cells assessed as reduction in cell viability; format: toxicity, cell-based, Vero C1008; conditions: chlorocebus sabaeus
SARS-CoV-2 = assay: Antiviral activity against SARS-CoV-2 isolate 2019-nCoV/Italy-INMI1 infected in African green monkey Vero E6 cells assessed as reduction in viral replication at MOI of 0.01 incubated for 5 days by qRT-PCR analysis; format: functional, organism-based; conditions: Severe acute respiratory syndrome coronavirus 2, 2019-nCoV/Italy-INMI1, Vero C1008, 120 h
dengue virus type 2 [26] = assay: Antiviral activity against DENV-2 infected in African green monkey Vero cells assessed as reduction in viral replication incubated for 22 hrs by plaque assay; format: functional, organism-based
[27] = Selectivity index, ratio of CC50 for human Huh-7 cells to EC50 for HCV-1 infected in human Huh-7 cells; format: toxicity, cell-based; conditions: read-out: Ratio CC50/EC50
[28] = Cytotoxicity against African green monkey Vero cells assessed as reduction in cell viability incubated for 22 hrs by XTT assay; format: toxicity, cell-based; conditions: chlorocebus sabaeus
[29] = Selectivity index, ratio of CC50 for African green monkey Vero cells to EC50 for DENV-2 infected in African green monkey Vero cells; format: toxicity; conditions: read-out: Ratio CC50/EC50
[30] = Selectivity index, ratio of CC50 for African green monkey Vero cells to EC50 for hPIV-3 infected in African green monkey Vero cells; format: toxicity; conditions: read-out: Ratio CC50/EC50
[31] = Selectivity index, ratio of CC50 for African green monkey Vero cells to EC50 for WNV infected in African green monkey Vero cells; format: toxicity; conditions: read-out: Ratio CC50/EC50
Hepatitis C virus [32] = assay: Antiviral activity against HCV-1 infected in human Huh-7 cells assessed as reduction in viral replication; format: functional, organism-based, Hepacivirus hominis; conditions: genotype 1, Huh-7
[33] = tested on: Respiratory syncytial virus; assay: Antiviral activity against RSV infected in African green monkey Vero cells assessed as reduction in viral replication incubated for 22 hrs by plaque formation assay; format: functional, organism-based; conditions: human respiratory syncytial virus
[34] = Selectivity index, ratio of CC50 for African green monkey Vero cells to EC50 for ZIKV infected in African green monkey Vero cells; format: toxicity; conditions: read-out: Ratio CC50/EC50
Zika virus = assay: Antiviral activity against ZIKV infected in African green monkey Vero cells assessed as reduction in viral replication incubated for 22 hrs by plaque assay; format: functional, organism-based
West Nile virus [35] = assay: Antiviral activity against WNV infected in African green monkey Vero cells assessed as reduction in viral replication incubated for 22 hrs by plaque formation assay; format: functional, organism-based
[36] = Selectivity index, ratio of CC50 for African green monkey Vero cells to EC50 for RSV infected in African green monkey Vero cells; format: toxicity; conditions: read-out: Ratio CC50/EC50
Human respirovirus 3 = assay: Antiviral activity against hPIV-3 infected in African green monkey Vero cells assessed as reduction in viral replication incubated for 22 hrs by plaque formation assay; format: functional, organism-based; conditions: Human respirovirus 3, Vero

T1 sequence (O00571 whole entry): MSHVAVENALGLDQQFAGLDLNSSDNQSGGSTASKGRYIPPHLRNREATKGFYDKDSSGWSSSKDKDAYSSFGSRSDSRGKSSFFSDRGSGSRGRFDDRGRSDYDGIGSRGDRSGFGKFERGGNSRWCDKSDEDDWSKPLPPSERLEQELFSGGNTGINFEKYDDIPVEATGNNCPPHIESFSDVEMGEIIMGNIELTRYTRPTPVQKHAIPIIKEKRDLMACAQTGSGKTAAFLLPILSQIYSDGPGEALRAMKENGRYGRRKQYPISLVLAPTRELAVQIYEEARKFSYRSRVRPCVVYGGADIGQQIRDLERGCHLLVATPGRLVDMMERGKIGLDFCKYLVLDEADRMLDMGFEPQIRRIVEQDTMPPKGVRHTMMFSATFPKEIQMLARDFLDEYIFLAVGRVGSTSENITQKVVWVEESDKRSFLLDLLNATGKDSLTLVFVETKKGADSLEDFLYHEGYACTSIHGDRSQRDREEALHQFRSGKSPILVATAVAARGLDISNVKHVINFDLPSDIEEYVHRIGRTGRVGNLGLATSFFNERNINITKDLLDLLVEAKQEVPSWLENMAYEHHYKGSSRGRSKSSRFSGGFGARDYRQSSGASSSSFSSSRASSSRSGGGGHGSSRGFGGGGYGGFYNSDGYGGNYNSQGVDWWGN

## CCCCc1cn(-c2ccc(NC(=O)Nc3ccccc3C(F)(F)F)cc2)nn1
[1]
  half-life: 5 h

## O=C(O)c1ccccc1C(=O)Nc1nnc(-c2ccc(O)cc2)s1
[2]
  selectivity ratio: 45
H9
  CC50: 125 µM
[3]
  EC50: 2.8 µM

## CCCCCCCCCCCCCCCCCCNC1=NC(=O)C2C(N=CN2[C@@H]2O[C@H](CO)[C@@H](O)[C@H]2O)C(=O)N1 (stereo not given in full)
[4]
  selectivity ratio: > 35
Hepatoma cell line
  CC50: > 630 µM
West Nile virus [5]
  EC50: 0.51 µM
Hepatitis C virus [6]
  EC50: 18 µM
Huh-7
  CC50: > 100 µM
[7]
  selectivity ratio: > 195

## CCN(CC)Nc1nc(N/N=C/c2ccccc2O)nc(Nc2ccccc2)n1
[8]
  Ki: 0.1 µM

## OCCc1cc(Nc2ccc(F)cc2)nc(N/N=C/c2ccccc2O)n1
[9]
  EC50: 6.5 µM
HeLa
  CC50: 65 µM
[10]
  selectivity ratio: 10

## Oc1ccc(Cl)cc1/C=N/Nc1nc(NCc2ccccc2)nc(NN2CCOCC2)n1
[8]
  Ki: 1.9 µM

## CC(C)Cc1cn(-c2ccc(NC(=O)Nc3cccc(F)c3)cc2)nn1
[11]
  IC50: 0.2 µM

## O=C(NCCN1C(=O)/C(=C/c2ccccc2O)SC1=S)c1cccc(F)c1
[8]
  Ki: 4.3 µM

## CCCCc1cn(-c2ccc(NC(=O)Nc3ccccc3C)cc2)nn1
[4]
  selectivity ratio: > 200
[12]
  CC50 at 48 h: > 50 µM
West Nile virus [5]
  EC50: 16.5 µM
[13]
  selectivity ratio: 91
[14]
  EC50: 1.1 µM
Hepatitis C virus [15]
  EC50: 0.97 µM
[16]
  selectivity ratio: > 2.5
[17]
  half-life: 3 h
[18]
  CC50: 49.8 µM
[19]
  EC50: 20 µM
[20]
  selectivity ratio: 51
[21]
  selectivity ratio: 78
[7]
  selectivity ratio: > 12
Dengue virus type 2 [22]
  EC50: 2.55 µM
[23]
  CC50: > 100 µM

## O=C(O)c1cc(Nc2nc3ccccc3[nH]2)ccc1O
[24]
  IC50: 0.2 µM

## O=C1S/C(=C\c2c(NCCO)nc3ccccn3c2=O)C(=O)N1CCc1ccccc1
[8]
  Ki: 0.2 µM

## Oc1ccccc1/C=N/Nc1nc(NCc2ccccc2)nc(NN2CCOCC2)n1
[8]
  Ki: 0.6 µM

## Oc1ccccc1/C=N/Nc1nc(Nc2cccc(Cl)c2)nc(NN2CCOCC2)n1
[8]
  Ki: 0.4 µM

## CC(C)Cc1cn(-c2ccc(NC(=O)Nc3ccccc3F)cc2)nn1
[11]
  IC50: 0.12 µM

## COc1ccc(/C=C2\SC(=S)N(CCC(=O)Nc3ccccc3OC)C2=O)cc1
[8]
  Ki: 11 µM

## Oc1ccccc1/C=N/Nc1nc(NCc2ccc(F)cc2)nc(NN2CCOCC2)n1
[8]
  Ki: 0.7 µM

## O=C(CCN1C(=O)/C(=C/c2ccccc2O)SC1=S)Nc1cccc(F)c1
[9]
  EC50: 7.5 µM
[25]
  CC50: > 100 µM
HeLa
  CC50: 50 µM
[10]
  selectivity ratio: 7
SARS-CoV-2
  EC50: < 5 µM
[8]
  Ki: 0.3 µM

## COc1cccc(NC(=O)CCN2C(=O)/C(=C/c3ccccc3O)SC2=S)c1
[8]
  Ki: 10 µM

## COc1cc(/C=C2\SC(=S)N(CCC(=O)Nc3ccccc3O)C2=O)cc(OC)c1OC
[8]
  Ki: 3.9 µM

## O=[N+]([O-])c1cccc(/C=N/Nc2nc(NCc3ccccc3)nc(NNc3ccc(F)cc3)n2)c1O
[8]
  Ki: 4 µM

## COc1ccc(Cn2c3ncnc4c(ncn4Cc4ccc(OC)cc4)c-3nc2=O)cc1
Dengue virus type 2 [26]
  EC50: 8.5 µM
[27]
  selectivity ratio: < 5
[25]
  CC50: > 30 µM
[28]
  CC50 at 22 h: 29.7 µM
[29]
  selectivity ratio: 3.5
[1]
  half-life: 7 h
[30]
  selectivity ratio: 1
[31]
  selectivity ratio: 3.5
Hepatitis C virus [32]
  EC50: 2 µM
Huh-7
  CC50: < 10 µM
SARS-CoV-2
  EC50: < 5 µM
[33]
  EC50: 13.4 µM
[34]
  selectivity ratio: 4.2
Zika virus
  EC50: 7 µM
West Nile virus [35]
  EC50: 8.5 µM
[36]
  selectivity ratio: 2.2
Human respirovirus 3
  EC50: 28.2 µM
